What was measured:
Format in all cases: in vivo
Italian ryegrass [1] = assay: Test Example 4: weedkilling efficacy by foliar treatment; I: Italian ryegrass; conditions: treatment dosage 315 g/ha
Outline: (§1)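 Seeds are spot-sown into sterilized diluvial soil and covered with about 1.5 cm of soil. After 14 days' greenhouse growth at 25 to 30° C, plants are sprayed on stems and leaves with diluted emulsion at the stated g/ha rate, then scored at 3 weeks.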

barnyard grass [2] = assay: Test Example 2: weedkilling efficacy, growth period weed treatment in the submerged state; A: barnyard grass; conditions: treatment dosage 252 g/ha
Outline: (§2)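 First, alluvial soil in pots is flooded to 4 cm and mixed seed is sown. Next, plants grow in a greenhouse at 25 to 30° C until the 1-2 leaf stage. Then diluted emulsion is applied onto the water surface at the given g/ha rate, and injury is assessed after 3 weeks.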

corn [3] = assay: Test Example 4: foliar treatment, effect on crop; c: corn; conditions: treatment dosage 315 g/ha
Outline: as §1

black-grass [4] = assay: Test Example 4: weedkilling efficacy by foliar treatment; H: black-grass; conditions: treatment dosage 315 g/ha
Outline: as §1

bulrush [5] = assay: Test Example 2: weedkilling efficacy, growth period weed treatment in the submerged state; B: bulrush; conditions: treatment dosage 252 g/ha
Outline: as §2

fig-leafed goosefoot [6] = assay: Test Example 4: weedkilling efficacy by foliar treatment; M: fig-leafed goosefoot; conditions: treatment dosage 315 g/ha
Outline: as §1

Italian ryegrass [7] = assay: Test Example 3: weedkilling efficacy through soil treatment; I: Italian ryegrass; conditions: treatment dosage 315 g/ha
Outline: (§3)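 Crop and weed responses were judged three weeks after a uniform surface spray of the water-diluted emulsion at the given g/ha rate. Seeds sat beneath about 1.5 cm of sterilized diluvial soil, and boxes stood in a greenhouse at 25 to 30° C.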

crabgrass [8] = assay: Test Example 4: weedkilling efficacy by foliar treatment; D: crabgrass; conditions: treatment dosage 315 g/ha
Outline: as §1

wild oat = assay: Test Example 3: weedkilling efficacy through soil treatment; G: wild oat; conditions: treatment dosage 315 g/ha
Outline: as §3

fig-leafed goosefoot [9] = assay: Test Example 3: weedkilling efficacy through soil treatment; M: fig-leafed goosefoot; conditions: treatment dosage 315 g/ha
Outline: as §3

green foxtail [10] = assay: Test Example 4: weedkilling efficacy by foliar treatment; E: green foxtail; conditions: treatment dosage 315 g/ha
Outline: as §1

directly sown rice [11] = assay: Test Example 4: foliar treatment, effect on crop; b: directly sown rice; conditions: treatment dosage 315 g/ha
Outline: as §1

directly sown rice [12] = assay: Test Example 3: soil treatment, effect on crop; b: directly sown rice; conditions: treatment dosage 315 g/ha
Outline: as §3

corn [13] = assay: Test Example 3: soil treatment, effect on crop; c: corn; conditions: treatment dosage 315 g/ha
Outline: as §3

beet [14] = assay: Test Example 4: foliar treatment, effect on crop; f: beet; conditions: treatment dosage 315 g/ha
Outline: as §1

bulrush [15] = assay: Test Example 1: weedkilling efficacy, preemergent weed treatment in the submerged state; B: bulrush; conditions: treatment dosage 252 g/ha
Outline: (§4)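 Alluvial soil in Wagner pots flooded to 4 cm; barnyard grass, bulrush and oval-leafed pondweed seeds sown, then 2.5-leaf rice seedlings transplanted. Same day, emulsified compound diluted in water to set g/ha dosages and applied to water surface; greenhouse 25–30 °C, effect scored by criteria after 3 weeks.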

oval-leafed pondweed [16] = assay: Test Example 1: weedkilling efficacy, preemergent weed treatment in the submerged state; C: oval-leafed pondweed; conditions: treatment dosage 252 g/ha
Outline: as §4

chickweed [17] = assay: Test Example 3: weedkilling efficacy through soil treatment; N: chickweed; conditions: treatment dosage 315 g/ha
Outline: as §3

wheat [18] = assay: Test Example 4: foliar treatment, effect on crop; e: wheat; conditions: treatment dosage 315 g/ha
Outline: as §1

black-grass [19] = assay: Test Example 3: weedkilling efficacy through soil treatment; H: black-grass; conditions: treatment dosage 315 g/ha
Outline: as §3

birds-eye speedwell [20] = assay: Test Example 3: weedkilling efficacy through soil treatment; p: birds-eye speedwell; conditions: treatment dosage 315 g/ha
Outline: as §3

Indian mallow [21] = assay: Test Example 4: weedkilling efficacy by foliar treatment; K: Indian mallow; conditions: treatment dosage 315 g/ha
Outline: as §1

barnyard grass [22] = assay: Test Example 1: weedkilling efficacy, preemergent weed treatment in the submerged state; A: barnyard grass; conditions: treatment dosage 252 g/ha
Outline: as §4

birds-eye speedwell [23] = assay: Test Example 4: weedkilling efficacy by foliar treatment; p: birds-eye speedwell; conditions: treatment dosage 315 g/ha
Outline: as §1

wheat [24] = assay: Test Example 3: soil treatment, effect on crop; e: wheat; conditions: treatment dosage 315 g/ha
Outline: as §3

redroot pigweed [25] = assay: Test Example 4: weedkilling efficacy by foliar treatment; L: redroot pigweed; conditions: treatment dosage 315 g/ha
Outline: as §1

oval-leafed pondweed [26] = assay: Test Example 2: weedkilling efficacy, growth period weed treatment in the submerged state; C: oval-leafed pondweed; conditions: treatment dosage 252 g/ha
Outline: as §2

green foxtail [27] = assay: Test Example 3: weedkilling efficacy through soil treatment; E: green foxtail; conditions: treatment dosage 315 g/ha
Outline: as §3

beet [28] = assay: Test Example 3: soil treatment, effect on crop; f: beet; conditions: treatment dosage 315 g/ha
Outline: as §3

catchweed = assay: Test Example 4: weedkilling efficacy by foliar treatment; O: catchweed; conditions: treatment dosage 315 g/ha
Outline: as §1

redroot pigweed [29] = assay: Test Example 3: weedkilling efficacy through soil treatment; L: redroot pigweed; conditions: treatment dosage 315 g/ha
Outline: as §3

Indian mallow [30] = assay: Test Example 3: weedkilling efficacy through soil treatment; K: Indian mallow; conditions: treatment dosage 315 g/ha
Outline: as §3

soybean [31] = assay: Test Example 4: foliar treatment, effect on crop; d: soybean; conditions: treatment dosage 315 g/ha
Outline: as §1

crabgrass [32] = assay: Test Example 3: weedkilling efficacy through soil treatment; D: crabgrass; conditions: treatment dosage 315 g/ha
Outline: as §3

chickweed [33] = assay: Test Example 4: weedkilling efficacy by foliar treatment; N: chickweed; conditions: treatment dosage 315 g/ha
Outline: as §1

soybean [34] = assay: Test Example 3: soil treatment, effect on crop; d: soybean; conditions: treatment dosage 315 g/ha
Outline: as §3

transplanted rice = assay: Test Example 1: preemergent weed treatment in the submerged state, effect on crop; a: transplanted rice; conditions: treatment dosage 252 g/ha
Outline: as §4

SMILES: CC1=C(c2ccsc2)C(=O)N(C(C)(C)C(=O)Nc2cccc(Br)n2)CO1 [B-2-06]
- I (Italian ryegrass) weedkilling efficacy grade (Italian ryegrass [1]): 5 (weed kill ratio 90% or more, (practically complete withering))
- A (barnyard grass) weedkilling efficacy grade (barnyard grass [2]): 5 (weed kill ratio 90% or more, (practically complete withering))
- c (corn) effect on crop grade (corn [3]): 1 (weed kill ratio 5% or more, less than 20%)
- H (black-grass) weedkilling efficacy grade (black-grass [4]): 5 (weed kill ratio 90% or more, (practically complete withering))
- B (bulrush) weedkilling efficacy grade (bulrush [5]): 5 (weed kill ratio 90% or more, (practically complete withering))
- M (fig-leafed goosefoot) weedkilling efficacy grade (fig-leafed goosefoot [6]): 4 (weed kill ratio 70% or more, less than 90%)
- I (Italian ryegrass) weedkilling efficacy grade (Italian ryegrass [7]): 5 (weed kill ratio 90% or more, (practically complete withering))
- D (crabgrass) weedkilling efficacy grade (crabgrass [8]): 5 (weed kill ratio 90% or more, (practically complete withering))
- G (wild oat) weedkilling efficacy grade (wild oat): 5 (weed kill ratio 90% or more, (practically complete withering))
- M (fig-leafed goosefoot) weedkilling efficacy grade (fig-leafed goosefoot [9]): 5 (weed kill ratio 90% or more, (practically complete withering))
- E (green foxtail) weedkilling efficacy grade (green foxtail [10]): 5 (weed kill ratio 90% or more, (practically complete withering))
- b (directly sown rice) effect on crop grade (directly sown rice [11]): 5 (weed kill ratio 90% or more, (practically complete withering))
- b (directly sown rice) effect on crop grade (directly sown rice [12]): 5 (weed kill ratio 90% or more, (practically complete withering))
- c (corn) effect on crop grade (corn [13]): 0 (weed kill ratio 5% or less (practically no effect))
- f (beet) effect on crop grade (beet [14]): 4 (weed kill ratio 70% or more, less than 90%)
- B (bulrush) weedkilling efficacy grade (bulrush [15]): 5 (weed kill ratio 90% or more, (practically complete withering))
- C (oval-leafed pondweed) weedkilling efficacy grade (oval-leafed pondweed [16]): 5 (weed kill ratio 90% or more, (practically complete withering))
- N (chickweed) weedkilling efficacy grade (chickweed [17]): 4 (weed kill ratio 70% or more, less than 90%)
- e (wheat) effect on crop grade (wheat [18]): 4 (weed kill ratio 70% or more, less than 90%)
- H (black-grass) weedkilling efficacy grade (black-grass [19]): 5 (weed kill ratio 90% or more, (practically complete withering))
- P (birds-eye speedwell) weedkilling efficacy grade (birds-eye speedwell [20]): 5 (weed kill ratio 90% or more, (practically complete withering))
- K (Indian mallow) weedkilling efficacy grade (Indian mallow [21]): 3 (weed kill ratio 40% or more, less than 70%)
- A (barnyard grass) weedkilling efficacy grade (barnyard grass [22]): 5 (weed kill ratio 90% or more, (practically complete withering))
- P (birds-eye speedwell) weedkilling efficacy grade (birds-eye speedwell [23]): 5 (weed kill ratio 90% or more, (practically complete withering))
- e (wheat) effect on crop grade (wheat [24]): 5 (weed kill ratio 90% or more, (practically complete withering))
- L (redroot pigweed) weedkilling efficacy grade (redroot pigweed [25]): 5 (weed kill ratio 90% or more, (practically complete withering))
- C (oval-leafed pondweed) weedkilling efficacy grade (oval-leafed pondweed [26]): 5 (weed kill ratio 90% or more, (practically complete withering))
- E (green foxtail) weedkilling efficacy grade (green foxtail [27]): 5 (weed kill ratio 90% or more, (practically complete withering))
- f (beet) effect on crop grade (beet [28]): 5 (weed kill ratio 90% or more, (practically complete withering))
- O (catchweed) weedkilling efficacy grade (catchweed): 4 (weed kill ratio 70% or more, less than 90%)
- L (redroot pigweed) weedkilling efficacy grade (redroot pigweed [29]): 5 (weed kill ratio 90% or more, (practically complete withering))
- K (Indian mallow) weedkilling efficacy grade (Indian mallow [30]): 4 (weed kill ratio 70% or more, less than 90%)
- d (soybean) effect on crop grade (soybean [31]): 4 (weed kill ratio 70% or more, less than 90%)
- D (crabgrass) weedkilling efficacy grade (crabgrass [32]): 5 (weed kill ratio 90% or more, (practically complete withering))
- N (chickweed) weedkilling efficacy grade (chickweed [33]): 4 (weed kill ratio 70% or more, less than 90%)
- d (soybean) effect on crop grade (soybean [34]): 2 (weed kill ratio 20% or more, less than 40%)
- a (transplanted rice) effect on crop grade (transplanted rice): 4 (weed kill ratio 70% or more, less than 90%)
